Laboratory results published in patent US5110815A, “5-amino-5,6,7,8-tetrahydroquinolines and related compounds and pharmaceutical use” (Hoechst-Roussel Pharmaceuticals Inc., priority 1990, dated 1992).
Counter-ions that a name gives are not always drawn.

Tests used:
[1] = tested on: scopolamine induced memory deficits; test: dark avoidance assay (reversal of scopolamine induced memory deficit); assay type: in vivo, male CFW mice; settings: sc, scopolamine 3.0 mg/kg sc
Source text: The 5-amino-5,6,7,8-tetrahydroquinolines and related compounds of the present invention are useful as agents for the relief of memory dysfunction, particularly dysfunctions associated with decreased cholinergic activity such as those found in Alzheimer's disease. […] In this assay, three groups of 15 male CFW mice were used, a vehicle/vehicle control group, a scopolamine/vehicle group, and a scopolamine/drug group. Thirty minutes prior to training, the vehicle/vehicle control group received normal saline subcutaneously, and the scopolamine/vehicle and scopolamine/drug groups received scopolamine subcutaneously (3.0 mg/kg, administered as scopolamine hydrobromide). Five minutes prior to training, the vehicle/vehicle control and scopolamine/vehicle groups received distilled water and the scopolamine/drug group received the test compound in distilled water.
The training/testing apparatus consisted of a plexiglass box approximately 48 cm long, 30 cm high and tapering from 26 cm wide at the top to 3 cm wide at the bottom. The interior of the box was divided equally by a vertical barrier into a light compartment (illuminated by 25-watt reflector lamp suspended 30 cm from the floor) and a dark compartment (covered). There was a hole at the bottom of the barrier 2.5 cm wide and 6 cm tall and a trap door which could be dropped to prevent an animal from passing between the two compartments. A Coulbourn Instruments small animal shocker was attached to two metal plates which ran the entire length of the apparatus, and a photocell was placed in the dark compartment 7.5 cm from the vertical barrier and 2 cm off the floor. The behavioral session was controlled by PDP 11/34 minicomputer.
At the end of the pretreatment interval, an animal was placed in the light chamber directly under the light fixture, facing away from the door to the dark chamber. The apparatus was then covered and the system activated. If the mouse passed through the barrier to the dark compartment and broke the photocell beam within 180 seconds, the trap door dropped to block escape to the light compartment and an electric shock was administered at an intensity of 0.4 milliamps for three seconds. The animal was then immediately removed from the dark compartment and placed in its home cage. […] The latency in seconds for each mouse was recorded.
The test day latency in seconds for each animal was recorded and the animals were then discarded.
The high degree of variability (due to season of the year, housing conditions, and handling) found in one trial passive avoidance paradigm is well known. To control for this fact, individual cutoff (CO) values were determined for each test, compensating for interest variability. […] Thus, the CO value was defined as the second highest latency time in the control group to more accurately reflect the 1/15 expected control responders in each test group. Experiments with a variety of standards repeated under a number of environmental conditions led to the development of the following empirical criteria: for a valid test, the CO value had to be less than 120 sec and the vehicle/vehicle control group had to have at least 5/15 animals with latencies greater than CO. For a compound to be considered active the scopolamine/compound group had to have at least 3/15 mice with latencies greater than CO.
The results of the dark avoidance test are expressed as the number of animals per group (%) in which this scopolamine induced memory deficit is blocked as measured by an increase in the latency period.

Acetylcholinesterase = target: T1, Acetylcholinesterase (Rattus norvegicus, UniProt P37136); test: in vitro inhibition of acetylcholinesterase activity (modified Ellman assay, rat corpora striata homogenate); assay type: biochemical, Male Wistar rats; settings: acetylthiocholine 5 millimolar final, pH 7.2, 10 min preincubation at 37° C
T1 construct: corpora strita dissected free, weighed and homogenized in 19 volumes; from tissue; host or cells: corpora striata of male Wistar rats, crude homogenate in 0.05 M phosphate buffer pH 7.2
T1 sequence (P37136 32-614): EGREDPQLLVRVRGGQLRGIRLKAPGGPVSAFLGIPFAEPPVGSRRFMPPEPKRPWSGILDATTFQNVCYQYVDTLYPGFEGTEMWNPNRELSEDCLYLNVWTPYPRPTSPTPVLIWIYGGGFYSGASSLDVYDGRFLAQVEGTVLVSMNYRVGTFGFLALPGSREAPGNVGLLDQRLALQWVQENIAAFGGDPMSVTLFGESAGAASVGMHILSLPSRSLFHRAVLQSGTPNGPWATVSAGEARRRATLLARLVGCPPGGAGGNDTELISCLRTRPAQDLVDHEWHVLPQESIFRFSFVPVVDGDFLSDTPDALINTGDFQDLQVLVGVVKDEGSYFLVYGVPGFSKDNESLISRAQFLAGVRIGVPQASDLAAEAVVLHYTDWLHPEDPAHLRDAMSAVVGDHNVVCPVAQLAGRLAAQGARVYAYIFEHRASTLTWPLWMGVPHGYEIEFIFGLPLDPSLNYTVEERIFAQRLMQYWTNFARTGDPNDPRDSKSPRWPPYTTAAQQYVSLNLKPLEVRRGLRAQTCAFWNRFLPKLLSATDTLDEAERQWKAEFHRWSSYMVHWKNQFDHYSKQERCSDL
Experimental: In this assay, a modification of a test described by G. L. Ellman, et al., Biochem. Pharmacol., 7, 88 (1961), the following reagents are prepared and employed:
1. 0.05M Phosphate Buffer (pH 7.2)
A solution of monobasic sodium phosphate monhydrate (6.85 g) in distilled water (100 ml) is added to a solution of dibasic sodium phosphate heptahydrate (13.4 g) and distilled water (100 ml) until a pH of 7.2 was attained. The solution was diluted 1 to 10 with distilled water.
The 0.05M Phosphate Buffer (pH 7.2) was added to acetylthiocholine (198 mg) to a total volume of 100 ml, i.e., a quantity sufficient (gs) to 100 ml.
3. 5,5-Dithiobisnitrobenzoic Acid in Buffer
The 0.05M Phosphate Buffer (pH 7.2) was added to 5,5-dithiobisnitrobenzoic acid to a total volume of 100 ml, i.e., a quantity sufficient (gs) to 100 ml.
4. Stock Solution of Drug
A 2 millimolar stock solution of the test drug is prepared in a quantity sufficient of a suitable solvent, either acetic acid or dimethyl sulfoxide to volume with 5,5-Dithiobisnitrobenzene Acid in Buffer. Stock Solution of Drug is serially diluted (1:10) so that the final cuvette concentration is 10^-4 molar.
Male Wistar rats are decapitated, brains rapidly removed, corpora strita dissected free, weighed and homogenized in 19 volumes (approximately 7 mg potein/ml) of 0.05M phosphate Buffer (pH 7.2) using a Potter-Elvehjem homogenizer. A 25 μl aliquot of this suspension is added to 1 ml of the vehicle or various concentrations of the test drug and preincubated for 10 minutes at 37° C. Enzyme activity is measured with a Beckman DU-50 spectrophotometer with the following software and instrument settings:
1. Kinetics Soft-Pac™ Module #598273;
6. Cuvettes--2 ml cuvettes using auto 6--sampler;
7. Blank--1 for each substrate concentration;
8. Interval time--15 seconds (15 or 30 seconds for kinetics);
9. Total time--5 minutes (5 or 10 minutes for kinetics);
13. Results--yes (gives slope); and
Reagents are added to the blank and sample cuvettes as follows:
Blank values are determined for each run to control for non-enzymatic hydrolysis of substrate and these values are automatically subtracted by the Kindata program available on kinetics soft-pac module. This program also calculates the rate of absorbance change for each cuvette.
5,5-Dithiobisnitrobenzoic Acid concentration is 0.5 millimolar yielding 0.25 millimolar final concentration. [formula]

SMILES	Percent of Animals with Scopolamine Induced Memory Deficit Reversal ([1]; dose 1.0 mg/kg) [%]	IC50 (Acetylcholinesterase) [µM]	other results
Cl.Cl.Cn1c2c(ccc1=O)C(NCCc1ccccc1)CCC2.O (stereo not shown) [5,6,7,8-Tetrahydro-1-methyl-5-[(2-phenylethyl)amino]-2(1H)-quinolinone dihydrochloride monohydrate]	33	–	–
CCCn1c2c(ccc1=O)C(NCCc1ccccc1)CCC2 (stereo not shown) [5,6,7,8-Tetrahydro-5-[(2-phenylethyl)amino]-1-propyl-2(1H)-quinolinone fumarate]	–	3.1	–
COc1ccc(CCNC2CCCc3c2ccc(=O)n3C)cc1 (stereo not shown) [5,6,7,8-Tetrahydro-5-[[2-(4-methoxyphenyl)ethyl]amino]-1-methyl-2(1H)-quinolinone]	–	9.6	Percent of Animals with Scopolamine Induced Memory Deficit Reversal ([1]; dose 0.3 mg/kg): 27%
Cn1c2c(ccc1=O)C(NCCc1ccc(Cl)c(Cl)c1)CCC2 (stereo not shown) [5-[[2-(3,4-Dichlorophenyl)ethyl]amino]-5,6,7,8-tetrahydro-1-methyl-2(1H)-quinolinone]	21	2.9	–
Cn1c2c(ccc1=O)C(NCCc1ccc(Cl)cc1)CCC2 (stereo not shown) [5-[[2-(4-Chlorophenyl)ethyl]amino]-5,6,7,8-tetrahydro-1-methyl-2(1H)-quinolinone]	–	6.6	–
CC(=O)NC1(C)CCCc2[nH]c(=O)ccc21 (stereo not shown) [N-(1,2,5,6,7,8-Hexahydro-5-methyl-2-oxo-5-quinolinyl)acetamide]	–	–	Percent of Animals with Scopolamine Induced Memory Deficit Reversal ([1]; dose 0.16 mg/kg): 20%
CC(=O)N(OCc1ccccc1)C1CCCc2nc(OCc3ccccc3)ccc21.Cl (stereo not shown) [N-(Phenylmethoxy)-N-[5,6,7,8-tetrahydro-2-(phenylmethoxy)-5-quinolinyl]acetamide hydrochloride]	20	–	–
CNC(=O)Oc1ccc2c(c1)[C@]1(C)CCN(C)[C@@H]1N2C [physostigmine, reference compound]	–	–	Percent of Animals with Scopolamine Induced Memory Deficit Reversal ([1]; dose 0.31 mg/kg): 20%
